Test results published in patent US20240279220A1, “INDOLE COMPOUNDS AND METHODS OF USE” (Genzyme Corporation, priority 2021, published 2024).

Each compound was assayed on NBD1/3D (assay: Aggregation analysis using differential static light scattering (DSLS), NBD1 thermal stability). Settings: ΔTagg versus DMSO control; compound at 100 μM.
Format: binding, Human
Description: Purified recombinant NBD1 was produced using previously described methods (A. Schmidt, J. L. Mendoza, P. J. Thomas (2011) Biochemical and Biophysical Approaches to Probe CFTR Structure (365-376) M. D. Amaral, K. Kunzelmann (eds.), Cystic Fibrosis, Methods in Molecular Biology 741, Springer Science+Business Media). The effect of test compounds on thermal stability of NBD1 was evaluated by differential static light scattering (DSLS) using the Harbinger Stargazer-384 instrument (Epiphyte Three, Toronto, Canada).
Test compounds were dissolved and diluted to desired concentrations in 100% DMSO. The compounds or DMSO controls (100 nL) were stamped into wells of a […] low volume optical plate (Corning Inc., Corning, NY) using the Echo 555 acoustic liquid handler (Labcyte Inc., San Jose, CA).
NBD1 protein was diluted to 0.2 mg/ml in S200 buffer (50 mM Tris-HCl, 150 mM NaCl, 5 mM MgCl2, 2 mM ATP, 2 mM DTT, pH7.6) containing 1% glycerol. 10 uL of protein solution was aliquoted into the 384-well plate harboring the test compounds and 10 uL mineral oil was overlayed onto the protein solution, using the epMotion robotic liquid handler (Eppendorf North America, Hauppauge, NY). After placing into the Stargazer instrument, the plate was heated at 1° C. per minute to 70° C. Images were captured from 25° C. to 70° C. every 0.5° C. At the end of the experiment run, instrument software integrated image files and analyzed data automatically. A […] regression curve was generated for each well, representing the increase in light scattering over time. A temperature of aggregation (Tagg) was calculated based on the inflection point of the curve. To better compare data across experiments the average Tagg for DMSO control wells was calculated and subtracted from values for wells containing compounds to obtain a “ΔTagg” value. These ΔTagg values reflect stabilizing efficacy of the compounds.
In the case of `Cc1c(Oc2ccc(F)c(-c3ncc(Cc4cc(F)cc(CCC(=O)O)c4)[nH]3)c2)c(F)cc2[nH]ccc12` [Example 108, 3-(3-fluoro-5-((2-(2-fluoro-5-((6-fluoro-4-methyl-1H-indol-5-yl)oxy)phenyl)-1H-imidazol-5-yl)methyl)phenyl)propanoic acid], the “DSLS NBD1/3D Human Stability delta-T (° C.) @ 100 (μM)” value (from here on “DSLS NBD1/3D Human Stability delta-T”) is reported as “B (B: 5-10° C.)”.
With `CC(C)(C)NCc1c(Oc2cccc(-c3ncc(C(O)c4cccc(CCC(=O)O)c4)[nH]3)c2)ccc2[nH]ccc12` (centres unmarked) [Example 263, 3-(3-((2-(3-((4-((tert-Butylamino)methyl)-1H-indol-5-yl)oxy)phenyl)-1H-imidazol-5-yl)(hydroxy)methyl)phenyl)propanoic acid] the “DSLS NBD1/3D Human Stability delta-T” value was “A (A: T ≥ 10° C.)”.
`O=C(O)CCc1cccc(C(O)c2cnc(-c3cccc(Oc4c(F)cc5[nH]ccc5c4-c4nccs4)c3)[nH]2)c1` (centres unmarked) [Example 87, 3-(3-((2-(3-((6-Fluoro-4-(thiazol-2-yl)-1H-indol-5-yl)oxy)phenyl)-1H-imidazol-5-yl)(hydroxy)methyl)phenyl)propanoic acid] was tested, and the “DSLS NBD1/3D Human Stability delta-T” value was “B (B: 5-10° C.)”.
In the case of `Cc1c(Oc2ccc(F)c(-c3ncc(C(C)(O)c4cccc(CCC(=O)O)c4)[nH]3)c2)c(F)cc2[nH]cc(Cl)c12` (centres unmarked) [Example 201, 3-(3-(1-(2-(5-((3-chloro-6-fluoro-4-methyl-1H-indol-5-yl)oxy)-2-fluorophenyl)-1H-imidazol-5-yl)-1-hydroxyethyl)phenyl) propanoic acid], the “DSLS NBD1/3D Human Stability delta-T” value is reported as “B (B: 5-10° C.)”.
For `CC(c1cnc(-c2cc(Oc3c(F)cc4[nH]ccc4c3CN3CCCS3(=O)=O)ccc2F)[nH]1)c1cccc(CCC(=O)O)c1F` (single isomer, unassigned) [Example 134A, 3-(3-(1-(2-(5-((4-((1,1-dioxidoisothiazolidin-2-yl)methyl)-6-fluoro-1H-indol-5-yl)oxy)-2-fluorophenyl)-1H-imidazol-5-yl)ethyl)-2-fluorophenyl)propanoic acid], the “DSLS NBD1/3D Human Stability delta-T” value was “B (B: 5-10° C.)”.
`COC(=O)CCc1cccc(C(C)(O)c2cnc(-c3cccc(Oc4ccc5[nH]ccc5c4CNC(C)=O)c3)[nH]2)c1` (centres unmarked) [Example 264, Methyl 3-(3-(1-(2-(3-((4-(acetamidomethyl)-1H-indol-5-yl)oxy)phenyl)-1H-imidazol-5-yl)-1-hydroxyethyl)phenyl)propanoate] was tested, and the “DSLS NBD1/3D Human Stability delta-T” value was “A (A: T ≥ 10° C.)”.
For `Cc1c(Oc2ccc(F)c(-c3ncc(C(C)(C)c4cccc(CCC(=O)O)c4F)[nH]3)c2)ccc2[nH]ccc12` [Example 161, 3-(2-fluoro-3-(2-(2-(2-fluoro-5-((4-methyl-1H-indol-5-yl)oxy)phenyl)-1H-imidazol-5-yl)propan-2-yl)phenyl)propanoic acid], the “DSLS NBD1/3D Human Stability delta-T” value was “B (B: 5-10° C.)”.
For `CC(O)(c1cccc([C@@H]2C[C@H]2C(=O)O)c1)c1c[nH]c(-c2cccc(Oc3c(F)cc4[nH]ccc4c3F)c2)n1` (mixture of isomers) [Example 184, rac-(1r,2r)-2-(3-(1-(2-(3-((4,6-Difluoro-1H-indol-5-yl)oxy)phenyl)-1H-imidazol-4-yl)-1-hydroxyethyl)phenyl)cyclopropane-1-carboxylic acid], the “DSLS NBD1/3D Human Stability delta-T” value was “B (B: 5-10° C.)”.
With `Cc1c(Oc2ccc(F)c(-c3ncc(C(C)(C#N)c4cccc(CCC(=O)O)c4)[nH]3)c2)c(F)c(F)c2[nH]ccc12` (centres unmarked) [Example 56, 3-(3-(1-cyano-1-(2-(5-((6,7-difluoro-4-methyl-1H-indol-5-yl)oxy)-2-fluorophenyl)-1H-imidazol-5-yl)ethyl)phenyl)propanoic acid] the “DSLS NBD1/3D Human Stability delta-T” value was “B (B: 5-10° C.)”.
For `CC(C)(c1cccc(CCC(=O)O)c1)c1cnc(-c2cc(Oc3c(F)cc4[nH]ccc4c3F)ccc2F)[nH]1` [Example 145, 3-(3-(2-(2-(5-((4,6-difluoro-1H-indol-5-yl)oxy)-2-fluorophenyl)-1H-imidazol-5-yl)propan-2-yl)phenyl)propanoic acid], the “DSLS NBD1/3D Human Stability delta-T” value was “B (B: 5-10° C.)”.
For `O=C(O)CCc1cccc(C2(c3cnc(-c4cc(Oc5c(F)cc6[nH]ccc6c5F)ccc4F)[nH]3)OCCCO2)c1` [Example 228, 3-(3-(2-(2-(5-((4,6-difluoro-1H-indol-5-yl)oxy)-2-fluorophenyl)-1H-imidazol-5-yl)-1,3-dioxan-2-yl)phenyl)propanoic acid], the “DSLS NBD1/3D Human Stability delta-T” value was “A (A: T ≥ 10° C.)”.
`Cc1c(Oc2ccc(F)c(-c3nc(C4(c5cccc(CCC(=O)O)c5)OCCO4)c[nH]3)c2)c(F)cc2[nH]ccc12` [Example 232, 3-(3-(2-(2-(2-fluoro-5-((6-fluoro-4-methyl-1H-indol-5-yl)oxy)phenyl)-1H-imidazol-4-yl)-1,3-dioxolan-2-yl)phenyl)propanoic acid] was tested, and the “DSLS NBD1/3D Human Stability delta-T” value was “B (B: 5-10° C.)”.
In the case of `CS(=O)(=O)c1c(Oc2ccc(F)c(-c3ncc(Cc4ccc5c(c4)CC(C(=O)O)C5)[nH]3)c2)c(F)cc2[nH]ccc12` (single isomer, unassigned) [Example 83B, 5-((2-(2-Fluoro-5-((6-fluoro-4-(methylsulfonyl)-1H-indol-5-yl)oxy)phenyl)-1H-imidazol-5-yl)methyl)-2,3-dihydro-1H-indene-2-carboxylic acid], the “DSLS NBD1/3D Human Stability delta-T” value is reported as “B (B: 5-10° C.)”.
For `OCCCc1cccc(Cc2cnc(-c3cc(Oc4c(F)cc5[nH]ccc5c4F)ccc3F)[nH]2)c1F` [Example 268, 3-(3-((2-(5-((4,6-Difluoro-1H-indol-5-yl)oxy)-2-fluorophenyl)-1H-imidazol-5-yl)methyl)-2-fluorophenyl)propan-1-ol], the “DSLS NBD1/3D Human Stability delta-T” value was “C (C: ≤5° C.)”.
For `Cc1c(Oc2cccc(-c3nnc(Cc4cccc([C@@H]5C[C@H]5C(=O)O)c4)[nH]3)c2)ccc2[nH]ccc12` (racemic) [Example 243, rac-(1R,2R)-2-(3-((5-(3-((4-Methyl-1H-indol-5-yl)oxy)phenyl)-4H-1,2,4-triazol-3-yl)methyl)phenyl)cyclopropane-1-carboxylic acid], the “DSLS NBD1/3D Human Stability delta-T” value was “B (B: 5-10° C.)”.
In the case of `Cc1c(Oc2ccc(F)c(-c3nc(C(C)(C)c4cccc(CCC(=O)O)c4F)c[nH]3)c2)c(F)c(F)c2[nH]ccc12` [Example 158, 3-(3-(2-(2-(5-((6,7-difluoro-4-methyl-1H-indol-5-yl)oxy)-2-fluorophenyl)-1H-imidazol-4-yl)propan-2-yl)-2-fluorophenyl)propanoic acid], the “DSLS NBD1/3D Human Stability delta-T” value is reported as “B (B: 5-10° C.)”.
For `O=C(O)CCc1cccc(C(O)c2cnc(-c3cccc(Oc4c(F)cc5[nH]ccc5c4-c4ccn[nH]4)c3)[nH]2)c1` (centres unmarked) [Example 267, 3-(3-((2-(3-((6-Fluoro-4-(1H-pyrazol-5-yl)-1H-indol-5-yl)oxy)phenyl)-1H-imidazol-5-yl)(hydroxy)methyl)phenyl)propanoic acid], the “DSLS NBD1/3D Human Stability delta-T” value was “B (B: 5-10° C.)”.
With `Cc1c(Oc2ccc(F)c(-c3nc(C(C)(O)c4cc(F)cc(CCC(=O)O)c4)c[nH]3)c2)c(F)cc2[nH]ccc12` (centres unmarked) [Example 192, 3-(3-fluoro-5-(1-(2-(2-fluoro-5-((6-fluoro-4-methyl-1H-indol-5-yl)oxy)phenyl)-1H-imidazol-4-yl)-1-hydroxyethyl)phenyl) propanoic acid] the “DSLS NBD1/3D Human Stability delta-T” value was “B (B: 5-10° C.)”.
In the case of `CS(=O)(=O)c1c(Oc2ccc(F)c(-c3ncc(C4(c5cccc(CCC(=O)O)c5)OCCCO4)[nH]3)c2)c(F)cc2[nH]ccc12` [Example 44, 3-(3-(2-(2-(2-Fluoro-5-((6-fluoro-4-(methylsulfonyl)-1H-indol-5-yl)oxy)phenyl)-1H-imidazol-5-yl)-1,3-dioxan-2-yl)phenyl)propanoic acid], the “DSLS NBD1/3D Human Stability delta-T” value is reported as “A (A: T ≥ 10° C.)”.
For `Cc1c(Oc2ccc(F)c(-c3ncc(Cc4cc(F)cc(CCC(=O)O)c4)[nH]3)c2)ccc2[nH]ccc12` [Example 106, 3-(3-fluoro-5-((2-(2-fluoro-5-((4-methyl-1H-indol-5-yl)oxy)phenyl)-1H-imidazol-5-yl)methyl)phenyl)propanoic acid], the “DSLS NBD1/3D Human Stability delta-T” value was “B (B: 5-10° C.)”.
With `Cc1c(Oc2ccc(F)c(-c3ncc(C4(c5cccc(CCC(=O)O)c5)OCC(C)(C)CO4)[nH]3)c2)c(F)cc2[nH]ccc12` [Example 230, 3-(3-(2-(2-(2-fluoro-5-((6-fluoro-4-methyl-1H-indol-5-yl)oxy)phenyl)-1H-imidazol-5-yl)-5,5-dimethyl-1,3-dioxan-2-yl)phenyl)propanoic acid] the “DSLS NBD1/3D Human Stability delta-T” value was “A (A: T ≥ 10° C.)”.
`Cc1c(Oc2ccc(F)c(-c3ncc(C(C)c4cccc([C@H]5C[C@@H]5C(=O)O)c4F)[nH]3)c2)c(F)cc2[nH]ccc12` (single isomer, unassigned) [Example 139G, trans-2-(2-fluoro-3-(1-(2-(2-fluoro-5-((6-fluoro-4-methyl-1H-indol-5-yl)oxy)phenyl)-1H-imidazol-5-yl)ethyl)phenyl)cyclopropane-1-carboxylic acid] was tested, and the “DSLS NBD1/3D Human Stability delta-T” value was “C (C: ≤5° C.)”.
With `Cc1c(Oc2ccc(F)c(-c3ncc(Cc4cc(F)cc(CCC(=O)O)c4)[nH]3)c2)c(F)c(F)c2[nH]ccc12` [Example 105, 3-(3-((2-(5-((6,7-difluoro-4-methyl-1H-indol-5-yl)oxy)-2-fluorophenyl)-1H-imidazol-5-yl)methyl)-5-fluorophenyl)propanoic acid] the “DSLS NBD1/3D Human Stability delta-T” value was “B (B: 5-10° C.)”.
